# In PubChem BioAssay (NCI):
# Values joined by “and” are separate entries in the source; they are usually repeats but may differ in a detail not shown here. Equal entries are not always repeated.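 Dose response: 5 concentrations. Exposure: 48 h. Format: 96-well plates. Endpoint: linear interpolation; highest concentration if not reached. GI50 marks 50% less growth. TGI is the concentration that stops growth completely.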 Where a SMILES comes first, the peptide text is derived from it. Bridges are numbered along the chain shown (N, C = ends).
# Key:
# Experiment in all cases: inhibition of tumour cell growth, NCI panel, 48 h
# [1] = test system: SF-268 CNS
# [2] = test system: SNB-75 CNS
# [3] = test system: KM12 colon
# [4] = test system: MDA-MB-435
# [5] = test system: SW-620 colon
# [6] = test system: DU-145 prostate
# [7] = test system: MALME-3M melanoma
# [8] = test system: TK-10 renal
# [9] = test system: EKVX NSCLC
# [10] = test system: LOX IMVI melanoma
Structure (SMILES),GI50 [1],TGI [1],TGI [2],TGI [3],TGI [4],GI50 [5],TGI [5],GI50 [6],TGI [6],GI50 [7],TGI [7],GI50 [8],TGI [8],GI50 [9],TGI [9],GI50 [10],TGI [10],GI50 [2],GI50 [3],GI50 [4]
O=C1NC(c2cccc3ccccc23)Nc2ccccc21 (centres undefined),0.0485 µM,> 100 µM,35.9 µM,5.91 µM and 10.4 µM,0.0068 µM,20.3 nM,> 56.6 µM,46 nM,8.11 µM,26.3 nM,43.7 µM,0.0545 µM,> 68 µM,27.8 nM,> 100 µM,38.9 nM,> 96.7 µM,,,
O=C(Nc1cccc(-n2ccc3c(NC(=O)c4ccccc4)nccc32)c1)c1ccc(Cl)c(Cl)c1,0.19 µM,2.18 µM,1.22 µM,0.942 µM,0.103 µM,106 nM,1.48 µM,220 nM,0.855 µM,242 nM,2.27 µM,0.865 µM,2.28 µM,704 nM,3.34 µM,219 nM,1.57 µM,0.147 µM,55.4 nM,27.5 nM
Cc1ccc2c(c1)C(=O)/C(=C/c1cccc(OCC(=O)c3ccc(Cl)cc3)c1)CS2,10.4 µM,33.3 µM,44.9 µM,8.02 µM,6.26 µM,1950 nM,4.19 µM,21900 nM,> 100 µM,15500 nM,46.1 µM,14.1 µM,39.5 µM,8650 nM,40.8 µM,1840 nM,3.87 µM,6.39 µM,2640 nM,2400 nM
O=[N+]([O-])c1cc(C(F)(F)F)cc2n[se]nc12,,15.3 µM,19.8 µM,20.3 µM,4.78 µM,,3.11 µM,,6.66 µM,,3.57 µM,,8.47 µM,,14.1 µM,,14.4 µM,,,
O=C(O)C1C2C=CC(O2)C1C(=O)NCc1ccncc1 (centres undefined),,> 100 µM,> 100 µM,> 100 µM,> 100 µM,,> 100 µM,,> 100 µM,,> 100 µM,,> 100 µM,,> 100 µM,,> 100 µM,,,
CC[C@H](C)C(=O)O[C@H]1CCC=C2C=C[C@H](C)[C@H](CC[C@@H]3C[C@@H](O)CC(=O)O3)[C@H]21,2.14 µM,> 100 µM,4.68 µM,> 100 µM,> 100 µM,11800 nM,> 100 µM,51600 nM,> 100 µM,,> 100 µM,22.5 µM,> 100 µM,7930 nM,> 100 µM,1070 nM,6.53 µM,1.37 µM,,7510 nM
Cc1cc2oc(=O)cc(OC/C=C3/CCC(=O)O3)c2cc1C,6.46 µM,40.1 µM,9.61 µM,18 µM,18.5 µM,2780 nM,11.6 µM,2670 nM,12.4 µM,2390 nM,7.62 µM,2 µM,8.34 µM,12900 nM,30.5 µM,1820 nM,4.59 µM,1.97 µM,3310 nM,4640 nM
CC(C)c1ccc(C(O)(C(=O)O)c2ccc(C(C)C)cc2)cc1,,> 100 µM,> 100 µM,> 100 µM,> 100 µM,,> 100 µM,,> 100 µM,,> 100 µM,,> 100 µM,,> 100 µM,,> 100 µM,,,
C=C1C(=O)O[C@H]2[C@H]1CC/C(CNC(=O)C(C)c1ccc(CC(C)C)cc1)=C\CC[C@@]1(C)O[C@@H]21 (some centres undefined),1.74 µM,3.58 µM,2.63 µM,5.65 µM,3.76 µM,1690 nM,3.55 µM,1490 nM,2.85 µM,1710 nM,3.36 µM,1.66 µM,3.02 µM,1670 nM,3.22 µM,1450 nM,2.81 µM,1.34 µM,2380 nM,1720 nM
CCOC(=O)Nc1cc2c(c(N)n1)N=C(c1ccccc1)CN2,< 0.0001 µM,34.8 µM,31 µM,49 µM,< 0.0001 µM,< 0.1 nM,> 53 µM,< 0.1 nM,,< 0.1 nM,50.8 µM,,> 60.7 µM,< 0.1 nM,46.6 µM,< 0.1 nM,32.9 µM,,< 0.1 nM,< 0.1 nM
N#Cc1ccc(C(=O)c2cnn(-c3ccc(F)cc3)c2N)cc1,> 25 µM,> 25 µM,> 25 µM,> 25 µM,> 25 µM,> 25000 nM,> 25 µM,> 25000 nM,> 25 µM,> 25000 nM,> 25 µM,> 25 µM,> 25 µM,,,> 25000 nM,> 25 µM,> 25 µM,> 25000 nM,> 25000 nM
CC(=O)OCC1OC([S-])C(OC(C)=O)C(OC(C)=O)C1OC(C)=O.[Au+].c1ccc(CN2[CH-]N(Cc3ccccc3)C(c3ccccc3)=C2c2ccccc2)cc1,2.43 µM and 0.458 µM,6.11 µM and 1.78 µM,7.21 µM and 4.4 µM,16.9 µM and 5.14 µM,10.4 µM and 3.36 µM,2020 nM and 779 nM,4.61 µM and 2.08 µM,2860 nM and 509 nM,8.09 µM and 3.59 µM,1930 nM and 278 nM,4.29 µM and 1.24 µM,2.66 µM and 0.796 µM,8.34 µM and 3.8 µM,2920 nM and 523 nM,9.53 µM and 4.27 µM,1650 nM and 563 nM,3.1 µM and 1.32 µM,1.83 µM and 0.412 µM,4320 nM and 980 nM,2940 nM and 860 nM
C=C1C(=O)O[C@H]2C3OC3(C)CC/C=C(/C(=O)OC)[C@@H](OC(C)=O)[C@H](OC(=O)C3(C)OC3C)[C@H]12 (some centres undefined),2.44 µM and 3.42 µM and 4.97 µg/mL,35.7 µM and 14.9 µg/mL,21.8 µM and 4.68 µg/mL,1.64 µM and 7.08 µg/mL,3.95 µM and 4.99 µM,422 nM and 350 nM and 0.302 µg/mL,3.47 µM and 1.4 µM and 0.762 µg/mL,,29 µM,1250 nM and 257 nM,4.35 µM and 0.941 µM,1.63 µM and 3.42 µM and 0.719 µg/mL,3.24 µM and 9.88 µM and 2.43 µg/mL,5.71 µM and 4.57 µM and 3.81 µg/mL,26.8 µM and 9.61 µg/mL,1360 nM and 1240 nM,2.74 µM and 2.7 µM,5.54 µM and 11.2 µM and 2.27 µg/mL,9.13 µM and 370 nM and 2.36 µg/mL,
Cc1c(C(=O)/C=C/c2ccc(Cl)cc2)nnn1-c1ccnc2c(C(F)(F)F)cccc12,21.5 µM,> 100 µM,36.5 µM,> 100 µM,> 100 µM,> 100000 nM,> 100 µM,> 100000 nM,> 100 µM,26800 nM,> 100 µM,34.9 µM,> 100 µM,76500 nM,> 100 µM,23300 nM,> 100 µM,15.9 µM,77100 nM,> 100000 nM
CCCCNP1(NCCCC)=NP(NCCCC)(NCCCC)=NP(NCCCC)(NCCCC)=NP(NCCCC)(NCCCC)=N1,1.53 µM,21.2 µM,15.8 µM,4.27 µM,6.51 µM,861 nM,15.9 µM,895 nM,15.2 µM,232 nM,2.6 µM,0.933 µM,13 µM,250 nM,6.17 µM,290 nM,2.11 µM,3.13 µM,355 nM,931 nM
CCc1nc(N)nc(N)c1-c1ccc(N(C)Cc2ccccc2)c([N+](=O)[O-])c1,,37.9 µM,19.5 µM,16.3 µM,17.9 µM,,26.5 µM,,31.7 µM,,17.1 µM,,34.2 µM,,35 µM,,22.2 µM,,,
COc1cc2c(cc1OC)-c1c(c3ccc([N+](=O)[O-])cc3c(=O)n1CCCN=[N+]=[N-])C2=O,41.7 µM,> 100 µM,> 100 µM,> 100 µM,> 100 µM,99800 nM,> 100 µM,86100 nM,> 100 µM,,,> 100 µM,> 100 µM,> 100000 nM,> 100 µM,25300 nM,> 100 µM,86.2 µM,> 100000 nM,> 100000 nM
COc1cc(C(=O)c2cnc(-c3ccc4cc[nH]c4c3)[nH]2)cc(OC)c1OC,0.0808 µM,7.19 µM,,2.16 µM,0.0245 µM,39.8 nM,21.7 µM,36.3 nM,11.1 µM,1610 nM,9.89 µM,0.34 µM,12.4 µM,72.1 nM,19.7 µM,105 nM,1.98 µM,,31.3 nM,
N#Cc1ccc(O)c(C2=NCC(c3ccc(-c4ccccc4)cc3)O2)c1 (centres undefined),0.499 µM,16.1 µM,14.4 µM,28.7 µM,51.6 µM,387 nM,31.2 µM,732 nM,16 µM,1710 nM,14.3 µM,,,342 nM,10.4 µM,57.9 nM,10.8 µM,0.625 µM,462 nM,665 nM
COc1ccccc1-c1ccc2c(N)c(C(=O)c3ccc4c(c3)OCO4)sc2n1,7.55 µM,32.4 µM,15.6 µM,23.3 µM,9.54 µM,4340 nM,> 100 µM,15000 nM,42.6 µM,4900 nM,16 µM,12.8 µM,28.6 µM,,,4610 nM,21.6 µM,3.27 µM,4460 nM,2270 nM
CCC(C)C1NC(=O)C(CC(C)C)NC(=O)C(C(C)C)NC(=O)C2CSSCC(NC1=O)C(=O)N2 (centres undefined) (cyclo(CCVLI); disulfide 1-2; configuration not given here),,,0.238 µM,0.223 µM,0.391 µM,,,,0.301 µM,,,,1.93 µM,,0.452 µM,,0.239 µM,,,
Fc1ccc(-c2c(-c3ccncc3)[nH]c3cccnc23)cc1,> 25 µM,> 25 µM,> 25 µM,> 25 µM,> 25 µM,> 25000 nM,> 25 µM,> 22700 nM,> 25 µM,> 21900 nM,> 25 µM,3.02 µM,> 25 µM,,,> 21700 nM,> 25 µM,> 17.8 µM,> 25000 nM,> 25000 nM
CN(C)c1ccc2cc3c(cc2c1)Oc1ccccc1N3.[Cl][Zn][Cl],13.6 µM,27.2 µM,24.2 µM,29.1 µM,4.19 µM,,,8240 nM,20.9 µM,3040 nM,9.6 µM,6.2 µM,16.5 µM,7010 nM,28.5 µM,1600 nM,3.22 µM,11.4 µM,13200 nM,1980 nM
COc1ccc(-c2nsc3c2NC(=O)CC3c2cccc(F)c2)cc1 (centres undefined),6.86 µM,> 100 µM,86.2 µM,> 100 µM,4.07 µM,3080 nM,> 100 µM,5290 nM,> 100 µM,6080 nM,> 100 µM,5.26 µM,> 100 µM,,,6500 nM,> 100 µM,4.78 µM,2480 nM,827 nM
COc1ccc2[nH]cc(Cc3c[nH]c4ccc(OC)cc34)c2c1,22.7 µM,62.5 µM,50.6 µM,41.4 µM,35.3 µM,18300 nM,32.2 µM,15200 nM,34 µM,,,15.9 µM,44 µM,17900 nM,45.9 µM,14900 nM,28.1 µM,13.7 µM,19000 nM,18100 nM
O=C(O)CC(S)C(=O)O.[Li+].[Sb] (centres undefined),> 100 µM,> 100 µM,,> 100 µM,> 100 µM,> 100000 nM,> 100 µM,> 100000 nM,> 100 µM,,,> 100 µM,> 100 µM,> 100000 nM,> 100 µM,47100 nM,> 100 µM,,> 100000 nM,> 100000 nM
